Source: US20230138395A1, “PHARMACEUTICAL COMPOSITIONS OF A THERAPEUTIC POLYENE MACROLIDE AND METHODS OF THEIR USE” (priority 2020, published 2023)
≈ marks a conversion by molar mass, not a printed value. Where “and” joins values, the source holds several entries; their conditions need not be identical. Equal values may be shown once.

Assays:
[1] = test system: all Aspergillus strains tested; test: MFC determination, summary; format: cell-based
[2] = test system: individual Aspergillus spp. (Table 15, species not named); test: MIC testing (CLSI M38-A2), Table 15; format: cell-based; settings: Aspergillus sp. of Table 15, caspofungin read as MEC
Penicillium strains [3] = test: MFC determination; format: cell-based, Penicillium spp.
[4] = test system: Fusarium strains (Table 18); test: MFC determination, Table 18; format: cell-based, Fusarium spp.
Cr. neoformans strains = test: MIC testing (CLSI M27-A3, YNB, 72 h); format: cell-based, Cryptococcus neoformans
Candida albicans [5] = test: MIC testing (CLSI M27-A3); format: cell-based; set-up: MIC: unit not given beside the values
C. parapsilosis = test: MFC determination; format: cell-based
[6] = test system: individual Aspergillus spp. (Table 15, species not named); test: MFC determination, Table 15; format: cell-based; settings: Aspergillus sp. of Table 15
[7] = test system: individual Aspergillus spp. (Table 13, species not given); test: MFC determination, Table 13; format: cell-based; settings: Aspergillus sp. of Table 13
[8] = test system: Fusarium strains (Table 18); test: MIC testing (CLSI M38-A2), Table 18; format: cell-based, Fusarium spp.
Candida albicans [9] = test: MFC determination; format: cell-based
all Candida strains = test: MFC determination, summary; format: cell-based
A. fumigatus AF91 [10] = test: In vitro activity (MIC) against the infecting strain, Example 17; format: cell-based, Aspergillus fumigatus; settings: Aspergillus fumigatus, read-out: MIC
Method: Minimum Inhibitory Concentration: MIC testing was performed according to the Clinical and Laboratory Standards Institute (CLSI) M27-A3 and M38-A2 standards for the susceptibility testing of yeasts and filamentous fungi, respectively (Cryptococcus isolates were incubated for 72 h). For yeast strains, the incubation temperature and time were 35° C. and 24-48 h, respectively, and the inoculum size was 0.5-2.5×10^3 CFU/ml. For filamentous strains, the inoculum size was 0.4-5×10^4 CFU/ml, and the incubation time was strain and drug specific. RPMI 1640 was the test medium throughout, with the exception of the use of YNB for Cryptococcus. Inhibition endpoints for compound 1A were recorded at 50% and 100% after both 24 h and 48 h incubation; caspofungin results against Aspergillus strains were read as minimum effective concentrations (MEC), the lowest concentration that leads to small, rounded, compact growth as compared to the confluent growth of the control.

A. fumigatus AF91 [11] = test: In vitro activity (MFC) against the infecting strain, Example 17; format: cell-based, Aspergillus fumigatus; settings: Aspergillus fumigatus, read-out: MFC
Method: Minimum Fungicidal Concentration: MFC determinations were performed according to the modifications previously described by Canton et al., Diagn. Microbiol. Infect. Dis., 45:203-206, 2003, and Ghannoum and Isham, Infectious Diseases in Clinical Practice, 15(4):250-253, 2007.
Specifically, the total contents of each clear well from the MIC assay were subcultured onto potato dextrose agar. To avoid antifungal carryover, the aliquots were allowed to soak into the agar and then were streaked for isolation once dry, thus removing the cells from the drug source. Fungicidal activity is defined as ≥99.9% reduction in the number of colony forming units (CFU)/ml from the starting inoculum count, while fungistatic activity is defined as <99.9% reduction. […] MIC and MFC values are considered to be equivalent if they are within 2 dilutions.

[12] = test system: individual Aspergillus spp. (Table 14, species not named); test: MIC testing (CLSI M38-A2), Table 14; format: cell-based; settings: Aspergillus sp. of Table 14, caspofungin read as MEC
C. krusei strains [13] = test: MFC determination; format: cell-based; settings: C. krusei
C. albicans SC5314 = test: In vitro activity (MIC) against the infecting strain, Example 18; format: cell-based, Candida albicans; settings: Candida albicans, read-out: MIC
C. krusei strains [14] = test: MIC testing (CLSI M27-A3); format: cell-based
[15] = test system: Aspergillus fumigatus AF91; test: Disseminated Aspergillosis in immunocompromised murine model (CD-1 mice): tissue fungal burden; settings: Experiment I; 7.5 mg/kg i.v., 7 days
Penicillium strains [16] = test: MIC testing (CLSI M38-A2); format: cell-based, Penicillium spp.; settings: Penicillium
Candida albicans SC5314 = test: Disseminated candidiasis in immunocompromised murine model (BALB/c mice): tissue fungal burden; format: in vivo; settings: Experiment I; 4 mg/kg i.v. twice a day, 7 days
[17] = test system: Blastomyces dermatitidis, Coccidioides immitis, and Histoplasma capsulatum strains; format: cell-based; settings: dimorphic fungal isolates; in µg/mL
[18] = Fluconazole-susceptible C. albicans n = 13, in µg/mL

## C[C@@H](c1ncncc1F)[C@](O)(Cn1cncn1)c1ccc(F)cc1F [Voriconazole, voriconazole]
[1]; kills 50% of strains
  MFC50: > 8 µg/mL
[1]; kills 90% of strains
  MFC90: > 8 µg/mL
[2]; in µg/mL
  MIC Range: 0.25-2
[2]; inhibits 50% of strains
  MIC50: 0.5 µg/mL (≈ 1.43 µM)
[2]; inhibits 90% of strains
  MIC90: 0.5 µg/mL (≈ 1.43 µM)
Penicillium strains [3]; kills 50% of strains
  MFC50: > 32 µg/mL
Penicillium strains [3]; kills 90% of strains
  MFC90: > 32 µg/mL
[4]; kills 50% of strains
  MFC50: > 16 µg/mL
[4]; kills 90% of strains
  MFC90: > 16 µg/mL
Cr. neoformans strains; Cr. neoformans strains, 72 h, in µg/mL
  MIC Range: <0.06-0.25
Cr. neoformans strains; Cr. neoformans, inhibits 50% of strains
  MIC50: < 0.06 µg/mL
Cr. neoformans strains; Cr. neoformans, inhibits 90% of strains
  MIC90: 0.125 µg/mL (≈ 0.358 µM)
Candida albicans [5]; [18]
  MIC Range: <0.06-0.06
Candida albicans [5]; Fluconazole-susceptible C. albicans n = 13, inhibits 50% of strains
  MIC50: 0.6 µg/mL (≈ 1.72 µM)
Candida albicans [5]; Fluconazole-susceptible C. albicans n = 13, inhibits 90% of strains
  MIC90: 0.06 µg/mL (≈ 0.172 µM)
Candida albicans [5]; individual C. albicans strain with elevated MICs to non-polyene comparators (Table 22), listed as Vor, in µg/mL
  MIC: >0.06 and 0.5 and 32
C. parapsilosis; C. parapsilosis, kills 50% of strains
  MFC50: > 32 µg/mL
C. parapsilosis; C. parapsilosis, kills 90% of strains
  MFC90: > 32 µg/mL
C. parapsilosis; individual C. parapsilosis strain with elevated MICs to non-polyene comparators (Table 22), in µg/mL
  MFC: >32
[6]; kills 50% of strains
  MFC50: > 4 µg/mL
[6]; kills 90% of strains
  MFC90: > 4 µg/mL
[7]; kills 50% of strains
  MFC50: 8 µg/mL (≈ 22.9 µM)
[7]; kills 90% of strains
  MFC90: > 8 µg/mL
[8]; inhibits 50% of strains
  MIC50: 16 µg/mL (≈ 45.8 µM)
[8]; inhibits 90% of strains
  MIC90: > 16 µg/mL
Candida albicans [9]; [18]
  MFC Range: >32
Candida albicans [9]; Fluconazole-susceptible C. albicans n = 13, kills 50% of strains
  MFC50: > 32 µg/mL
Candida albicans [9]; Fluconazole-susceptible C. albicans n = 13, kills 90% of strains
  MFC90: > 32 µg/mL
Candida albicans [9]; individual C. albicans strain with elevated MICs to non-polyene comparators (Table 22), listed as Vor
  MFC: 16 and >32 (2×)
All Candida strains; kills 50% of strains
  MFC50: > 32 µg/mL
All Candida strains; kills 90% of strains
  MFC90: > 32 µg/mL
A. fumigatus AF91 [10]
  MIC: 1 µg/mL (≈ 2.86 µM)
A. fumigatus AF91 [11]
  MFC: > 8 µg/mL
[12]; in µg/mL
  MIC Range: 0.06-8
[12]; inhibits 50% of strains
  MIC50: 1 µg/mL (≈ 2.86 µM)
[12]; inhibits 90% of strains
  MIC90: 4 µg/mL (≈ 11.5 µM)
C. krusei strains [13]; kills 50% of strains
  MFC50: > 8 µg/mL
C. krusei strains [13]; kills 90% of strains
  MFC90: > 8 µg/mL
C. albicans SC5314
  MIC: 0.008 µg/mL (≈ 0.0229 µM)
C. krusei strains [14]; C. krusei strains, in µg/mL
  MIC Range: <0.06-0.5
C. krusei strains [14]; C. krusei, inhibits 50% of strains
  MIC50: 0.125 µg/mL (≈ 0.358 µM)
C. krusei strains [14]; C. krusei, inhibits 90% of strains
  MIC90: 0.25 µg/mL (≈ 0.716 µM)
[15]
  Kidney tissue fungal burden, Mean log CFUs ± the standard deviation: 3.19 ± 0.59 log CFUs
  Lung tissue fungal burden, Mean log CFUs ± the standard deviation: 3.38 ± 0.45 log CFUs
Penicillium strains [16]; inhibits 50% of strains
  MIC50: 4 µg/mL (≈ 11.5 µM)
Penicillium strains [16]; inhibits 90% of strains
  MIC90: > 32 µg/mL
Candida albicans SC5314
  Brain tissue fungal burden, Mean log CFUs ± the standard deviation: 3.42 ± 2.30 log CFUs
  Kidney tissue fungal burden, Mean log CFUs ± the standard deviation: 3.45 ± 1.15 log CFUs
[17]
  MIC Range: <0.03-0.125
